Measured values published in ChEMBL document CHEMBL3885861, “Open TG-GATES”.

Species on record: Rattus norvegicus
Assay: Open TG-GATES - Regimen: Daily Repeat
Format: toxicity, organism-based, Sprague-Dawley
Parameters: regimen Daily Repeat, gender Male, age 6 weeks
Details: in vivo, po, route gavage; for Eos / Fbg / Hb / Ht / Lym / MCHC / MCV / Mono / Neu / PT / Plat / RBC / Ret / WBC / Bas: tissue Blood; for ALP / AST / BUN / CRE / Ca / Cl / DBIL / GLC / IP / K / LDH / Na / PL / RALB / TBIL / TC / TG / TP / gamma-GTP / ALT: tissue Plasma
[1] = 300 mg/kg, 72 h, dose level Middle, time 3 day
[2] = 300 mg/kg, […], dose level Middle, time 7 day
[3] = 300 mg/kg, […], dose level Middle, time 14 day
[4] = 300 mg/kg, […], dose level Middle, time 28 day
[5] = 1000 mg/kg, 72 h, dose level High, time 3 day
[6] = 1000 mg/kg, […], dose level High, time 7 day
[7] = 1000 mg/kg, […], dose level High, time 14 day
[8] = 1000 mg/kg, […], dose level High, time 28 day

O=C(O)c1cccnc1 [NIACIN]
Eos [1]: 1%
Fbg [1]: 314.2 mg/dL
Hb [1]: 13.3 g/dL
Ht [1]: 40.2%
Lym [1]: 75.2%
MCHC [1]: 33%
MCV [1]: 63.4 fL
Mono [1]: 3.6%
Neu [1]: 19%
PT [1]: 16 s
Plat [1]: 132.1 x10_4/uL
RBC [1]: 635.6 x10_4/ul
Ret [1]: 7.2%
WBC [1]: 106.7 x10_2/uL
ALP [1]: 1606.8 IU/L
AST [1]: 74.6 IU/L
BUN [1]: 16.4 mg/dL
CRE [1]: 0.2 mg/dL
Ca [1]: 10.8 mg/dL
Cl [1]: 104 meq/L
DBIL [1]: 0 mg/dL
GLC [1]: 191.6 mg/dL
IP [1]: 8.2 mg/dL
K [1]: 4.1 meq/L
LDH [1]: 165.8 IU/L
Na [1]: 139.6 meq/L
PL [1]: 152.8 mg/dL
RALB [1]: 3 g/dL
TBIL [1]: 0 mg/dL
TC [1]: 73.2 mg/dL
TG [1]: 136.2 mg/dL
TP [1]: 5.6 g/dL
gamma-GTP [1]: 1.2 IU/L
TERMINAL_BW [2]: 273.2 g
TERMINAL_BW [3]: 321.5 g
TERMINAL_BW [4]: 396.3 g
Bas [2]: 0%
Eos [2]: 1%
Fbg [2]: 325.8 mg/dL
Hb [2]: 13.8 g/dL
Ht [2]: 41.4%
Lym [2]: 75%
MCHC [2]: 33.4%
MCV [2]: 63.5 fL
Mono [2]: 3.4%
Neu [2]: 19.2%
PT [2]: 15.6 s
Plat [2]: 112.8 x10_4/uL
RBC [2]: 652.2 x10_4/ul
Ret [2]: 6%
WBC [2]: 104.1 x10_2/uL
Bas [3]: 0%
Eos [3]: 0.6%
Fbg [3]: 325.2 mg/dL
Ht [3]: 42.2%
Lym [3]: 72.6%
MCHC [3]: 33.7%
MCV [3]: 59.8 fL
Mono [3]: 3.4%
Neu [3]: 21.8%
PT [3]: 15.5 s
Plat [3]: 109.4 x10_4/uL
RBC [3]: 705.8 x10_4/ul
Ret [3]: 4.7%
WBC [3]: 119.8 x10_2/uL
Bas [4]: 0%
Eos [4]: 1.2%
Fbg [4]: 336.6 mg/dL
Hb [4]: 15 g/dL
Ht [4]: 42.6%
Lym [4]: 74.8%
MCHC [4]: 35.3%
MCV [4]: 56 fL
Mono [4]: 2.8%
PT [4]: 16.1 s
Plat [4]: 100.4 x10_4/uL
RBC [4]: 761.2 x10_4/ul
Ret [4]: 2.6%
WBC [4]: 105.7 x10_2/uL
ALP [2]: 1661 IU/L
ALT [2]: 47.8 IU/L
AST [2]: 76 IU/L
BUN [2]: 17.6 mg/dL
CRE [2]: 0.1 mg/dL
Ca [2]: 10.7 mg/dL
Cl [2]: 105 meq/L
DBIL [2]: 0 mg/dL
GLC [2]: 189 mg/dL
IP [2]: 7.4 mg/dL
K [2]: 4.3 meq/L
LDH [2]: 138.4 IU/L
Na [2]: 139.8 meq/L
PL [2]: 161.8 mg/dL
RALB [2]: 2.9 g/dL
TBIL [2]: 0 mg/dL
TC [2]: 79.6 mg/dL
TG [2]: 135.8 mg/dL
TP [2]: 5.5 g/dL
gamma-GTP [2]: 1.4 IU/L
ALP [3]: 1495.2 IU/L
ALT [3]: 39.6 IU/L
AST [3]: 68.8 IU/L
CRE [3]: 0.2 mg/dL
Ca [3]: 10.7 mg/dL
Cl [3]: 104.4 meq/L
DBIL [3]: 0 mg/dL
GLC [3]: 201 mg/dL
IP [3]: 6.8 mg/dL
K [3]: 3.9 meq/L
LDH [3]: 166.4 IU/L
Na [3]: 137.6 meq/L
PL [3]: 162.6 mg/dL
RALB [3]: 3.1 g/dL
TBIL [3]: 0.006 mg/dL
TC [3]: 77.6 mg/dL
TG [3]: 156 mg/dL
TP [3]: 5.8 g/dL
gamma-GTP [3]: 1.8 IU/L
ALP [4]: 1059.8 IU/L
ALT [4]: 41.4 IU/L
AST [4]: 71.2 IU/L
BUN [4]: 16 mg/dL
CRE [4]: 0.2 mg/dL
Ca [4]: 10.4 mg/dL
Cl [4]: 107 meq/L
DBIL [4]: 0 mg/dL
GLC [4]: 193.6 mg/dL
IP [4]: 6.3 mg/dL
K [4]: 4.4 meq/L
LDH [4]: 149.2 IU/L
Na [4]: 143 meq/L
PL [4]: 140.4 mg/dL
RALB [4]: 3 g/dL
TBIL [4]: 0.008 mg/dL
TC [4]: 69.4 mg/dL
TG [4]: 126.6 mg/dL
TP [4]: 6.1 g/dL
gamma-GTP [4]: 2.8 IU/L
TERMINAL_BW [5]: 239.5 g
Bas [5]: 0%
Eos [5]: 0.8%
Fbg [5]: 319.4 mg/dL
Hb [5]: 13.5 g/dL
Ht [5]: 40.1%
Lym [5]: 73.6%
MCHC [5]: 33.5%
MCV [5]: 62.3 fL
Mono [5]: 3.8%
Plat [5]: 119.3 x10_4/uL
RBC [5]: 645 x10_4/ul
Ret [5]: 5.7%
WBC [5]: 116 x10_2/uL
ALP [5]: 1534.6 IU/L
ALT [5]: 48.8 IU/L
AST [5]: 77.8 IU/L
BUN [5]: 17.2 mg/dL
CRE [5]: 0.2 mg/dL
Ca [5]: 10.9 mg/dL
Cl [5]: 104.2 meq/L
DBIL [5]: 0 mg/dL
GLC [5]: 187.6 mg/dL
IP [5]: 8.5 mg/dL
K [5]: 4.1 meq/L
LDH [5]: 176.6 IU/L
Na [5]: 139.4 meq/L
PL [5]: 148.8 mg/dL
RALB [5]: 3.1 g/dL
TBIL [5]: 0 mg/dL
TC [5]: 73.4 mg/dL
TG [5]: 97.6 mg/dL
TP [5]: 5.6 g/dL
gamma-GTP [5]: 1.2 IU/L
TERMINAL_BW [6]: 270 g
TERMINAL_BW [7]: 315.4 g
TERMINAL_BW [8]: 425.7 g
Bas [6]: 0%
Eos [6]: 0.8%
Fbg [6]: 325.4 mg/dL
Hb [6]: 13.6 g/dL
Ht [6]: 40.6%
Lym [6]: 77.2%
MCHC [6]: 33.5%
MCV [6]: 61.6 fL
Mono [6]: 3.4%
Neu [6]: 16.8%
PT [6]: 16 s
Plat [6]: 107.2 x10_4/uL
RBC [6]: 659.8 x10_4/ul
Ret [6]: 6.7%
WBC [6]: 127.7 x10_2/uL
Bas [7]: 0%
Eos [7]: 0.6%
Fbg [7]: 295.4 mg/dL
Hb [7]: 13.9 g/dL
Ht [7]: 41.5%
Lym [7]: 75.2%
MCHC [7]: 33.6%
Mono [7]: 2.4%
Neu [7]: 19.8%
PT [7]: 15.2 s
Plat [7]: 114.8 x10_4/uL
RBC [7]: 684.2 x10_4/ul
Ret [7]: 4.6%
WBC [7]: 131.3 x10_2/uL
Bas [8]: 0%
Eos [8]: 1%
Fbg [8]: 310.8 mg/dL
Hb [8]: 14.8 g/dL
Ht [8]: 42.1%
Lym [8]: 75.6%
MCHC [8]: 35.2%
MCV [8]: 56.4 fL
Mono [8]: 3.6%
Neu [8]: 18.2%
PT [8]: 15.8 s
Plat [8]: 88.1 x10_4/uL
RBC [8]: 747.2 x10_4/ul
Ret [8]: 2.7%
WBC [8]: 127.6 x10_2/uL
ALP [6]: 1693.6 IU/L
ALT [6]: 45.6 IU/L
AST [6]: 77.6 IU/L
BUN [6]: 15.8 mg/dL
CRE [6]: 0.2 mg/dL
Ca [6]: 10.6 mg/dL
Cl [6]: 104.8 meq/L
DBIL [6]: 0 mg/dL
GLC [6]: 196.6 mg/dL
IP [6]: 7.5 mg/dL
K [6]: 4.5 meq/L
LDH [6]: 137.2 IU/L
Na [6]: 139 meq/L
PL [6]: 142.4 mg/dL
RALB [6]: 3 g/dL
TBIL [6]: 0.004 mg/dL
TC [6]: 69.2 mg/dL
TG [6]: 107 mg/dL
TP [6]: 5.6 g/dL
gamma-GTP [6]: 1.8 IU/L
ALP [7]: 1458 IU/L
ALT [7]: 44.8 IU/L
AST [7]: 86.8 IU/L
BUN [7]: 17.2 mg/dL
CRE [7]: 0.2 mg/dL
Ca [7]: 10.5 mg/dL
Cl [7]: 105.2 meq/L
DBIL [7]: 0 mg/dL
GLC [7]: 195.6 mg/dL
IP [7]: 7 mg/dL
K [7]: 4.1 meq/L
LDH [7]: 140.8 IU/L
Na [7]: 138.8 meq/L
PL [7]: 150.8 mg/dL
RALB [7]: 3.1 g/dL
TBIL [7]: 0.012 mg/dL
TC [7]: 67.2 mg/dL
TG [7]: 163.6 mg/dL
TP [7]: 5.7 g/dL
gamma-GTP [7]: 1.8 IU/L
ALP [8]: 1046.8 IU/L
ALT [8]: 47 IU/L
AST [8]: 80.8 IU/L
BUN [8]: 17.8 mg/dL
CRE [8]: 0.2 mg/dL
Ca [8]: 10.5 mg/dL
Cl [8]: 104 meq/L
DBIL [8]: 0 mg/dL
GLC [8]: 196.6 mg/dL
IP [8]: 7.1 mg/dL
K [8]: 4.2 meq/L
LDH [8]: 157.4 IU/L
Na [8]: 143.4 meq/L
PL [8]: 152 mg/dL
RALB [8]: 3 g/dL
TBIL [8]: 0.01 mg/dL
TC [8]: 68.4 mg/dL
TG [8]: 184 mg/dL
TP [8]: 5.8 g/dL
gamma-GTP [8]: 2.4 IU/L
